In patent US20250206738A1, “WRN INHIBITORS” (Nimbus Wadjet, Inc., priority 2023, published 2025):
Where two headings read alike, the source gives them in different places.

What was measured:
[1] = target: T1, human Werner helicase (WRN, Uniprot Q14191, amino acids 517-1235 with L1074F point mutation; WRN-BV08) (Homo sapiens, UniProt Q14191, L1074F); test: WRN (BV08) ADP-Glo assay; type: biochemical; details: WRN-BV08 (aa 517-1235, L1074F); read-out: ADP-Glo_hWRN_IC50
T1 construct: Uniprot Q14191, amino acids 517-1235 with L1074F point mutation; 8xHis (C, cleaved yes); TEV cleavage site (ENLYFQG) (C, cleaved yes); made in house; host or cells: Sf9 insect cells (baculovirus, pFastBac)
T1 sequence (Q14191 with tags, fused parts or gaps L1074F): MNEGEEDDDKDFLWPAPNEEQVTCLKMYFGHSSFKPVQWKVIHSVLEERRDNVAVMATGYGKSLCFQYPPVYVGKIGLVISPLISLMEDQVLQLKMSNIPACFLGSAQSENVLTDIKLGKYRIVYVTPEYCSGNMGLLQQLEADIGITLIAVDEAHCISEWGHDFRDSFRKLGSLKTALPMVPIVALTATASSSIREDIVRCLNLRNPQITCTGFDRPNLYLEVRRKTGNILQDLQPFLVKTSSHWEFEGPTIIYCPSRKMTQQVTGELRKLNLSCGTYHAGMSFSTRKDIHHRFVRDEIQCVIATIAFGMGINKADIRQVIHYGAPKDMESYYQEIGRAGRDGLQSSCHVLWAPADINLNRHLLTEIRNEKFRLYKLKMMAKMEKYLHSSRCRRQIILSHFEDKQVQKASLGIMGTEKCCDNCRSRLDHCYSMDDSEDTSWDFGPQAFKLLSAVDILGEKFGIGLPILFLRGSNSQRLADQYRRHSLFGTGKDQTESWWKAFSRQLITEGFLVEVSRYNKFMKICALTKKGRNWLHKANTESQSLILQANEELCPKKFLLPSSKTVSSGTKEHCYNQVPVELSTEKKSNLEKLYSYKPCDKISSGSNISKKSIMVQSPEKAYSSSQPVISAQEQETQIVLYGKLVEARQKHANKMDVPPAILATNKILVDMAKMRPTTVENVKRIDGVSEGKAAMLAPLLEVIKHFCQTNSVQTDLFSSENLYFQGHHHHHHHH
Description: Example 2: WRN (BV08) ADP-Glo Assay Protocol
Bovine skin gelatin (BSG), dimethyl sulfoxide (DMSO), Pluronic F-127 and tris(2-carboxyethyl)phosphine hydrochloride solution (TCEP) were purchased from Sigma-Aldrich (St. Louis, MO) at the highest level of purity possible. Bicine buffer solution was purchased from Alfa Aesar (Tewksbury, MA) and compound NSC-617145 was purchased from Tocris (Minneapolis, MN). DNA duplex was synthesized at BGI (Shenzhen, China) and was composed of strand 1 with the sequence 5′-[…]-3′ (SEQ ID NO.: 1) and strand 2 with the sequence 5′-[…]-3′ (SEQ ID NO.: 2). DNA strands were annealed by heating to 95° C. for 5 minutes followed by slow cooling to room temperature. Compounds in 100% DMSO ([…]) were spotted into a 384-well white polystyrene Optiplate-384 (Perkin Elmer; Waltham, MA) assay plate using a LabCyte Echo 550 (Agilent; Santa Clara, CA). DMSO ([…]) was added to columns 12, rows A-H and column 24, rows I-P for the maximum signal control. Compound NSC-617145 ([…]) was added to columns 12, rows I-P and 24, rows A-H for the minimum signal control (100% inhibition). Compounds/DMSO were preincubated for 15 minutes at 25° C. with […] 2×WRN (BV08), prepared as described below, in assay buffer containing 20 mM Bicine (pH=7.5), 1 mM MgCl2, 10 mM KCl, 0.1% Pluronic F-127, 0.005% BSG, 1 mM TCEP. The reaction was initiated by the addition of […] 2× substrate mixture in assay buffer and incubated for 60 minutes at 25° C. The final concentrations of the assay components were 0.15 nM WRN, […], and 0.1 nM DNA duplex. The final DMSO concentration was 1% and the reference compound concentration (NSC-617145) used for the minimal signal control was […]. The reaction was stopped by the addition of the ADP-Glo Kit components (Promega; Madison, WI) as directed and the relative luminescence units (RLU) were read on an Envision 2104 (Perkin Elmer; Waltham, MA).
% Inhibition Calculation:
Where RLU=relative luminescence units, sample=signal in sample well, and MIN and MAX are the respective minimum and maximum signal controls.
Four-Parameter IC50 Fit Equation:
Where top and bottom are normally allowed to float but may be fixed at 100 or 0 respectively in a 3-parameter fit. Y is the % inhibition and X is the compound concentration.
Molecular Biology and virus production. The DNA encoding human Werner helicase (Uniprot Q14191, amino acids 517-1235 with L1074F point mutation) was generated with codon-optimization for […] expression and subcloned into the pFastBac vector with a TEV cleavable 8×His tag (SEQ ID NO: 5) (WRN—BV08). The baculovirus from the expression plasmid WRN—BV08 was generated from transfection and amplification following the manufacturer's instructions.
Sf9 cells grown in SF900II media were infected with 1:200 WRN—BV08 P2 virus and incubated for protein expression for 72 h at 27° C. The WRN protein was purified using the following protocol. The cell pellets were thawed and resuspended in buffer A (50 mM Tris, pH 7.5, 500 mM NaCl, 1 mM TCEP, 10% Glycerol) supplemented with 0.5% CHAPS, 1 mM PMSF, 1 μg/ml Leupeptin, 1 μg/ml Pepstatin, and the Pierce Universal Nuclease and cocktail tablet. Cleared lysates were loaded onto a Ni Sepharose™ excel column and washed with buffer A and bound protein was eluted with buffer A supplemented with 300 mM imidazole. The eluted protein was dialyzed against buffer A and digested by His-tagged TEV (1:5 ratio) overnight at 4° C. ZnCl2 was added into the sample at final 15 μM before loading onto a second Ni Sepharose™ excel column. Untagged WRN protein was eluted from the column with buffer A supplemented with 20 mM imidazole, dialyzed overnight into buffer B (50 mM Tris, pH 7.5, 1 mM TCEP, 10% Glycerol) supplemented with 150 mM NaCl and loaded onto a Heparin column. Proteins were eluted with a step gradient of buffer B supplemented with 150 mM, 200 mM, 300 mM and 500 mM NaCl. […]

[2] = tested on: p21 induction in HCT 116 cells; test: p21 induction in cells (In-Cell Western, p21/GAPDH ratio); type: cell-based; details: 24 h compound incubation, read-out: P21_EC50
Procedure: Example 3: Method for Determining Effect on p21 Induction in Cells
The colon carcinoma cell line HCT 116 was obtained from ATCC and cultured in growth medium consisting of Mccoy's 5A Medium (Gibco 16600108) supplemented with 10% FBS (Transgene FS201-02) and 100 units/mL penicillin-streptomycin (Gibco 15140122) and maintained at 37° C. under 5% CO2. On the day of seeding, 2,000 cells in 30 μL of culture media were plated per well to Poly-D-Lysine 384 Well Black Clear Plates (Biocoat 356663) and incubated overnight at 37° C. under 5% CO2. The following day, compounds were serially diluted in DMSO for a total of 11 test concentrations. The typical starting concentration of compounds was 10 μM with 2-fold dilutions. Next, 150 nL of diluted compound was added in duplicate to the assay plate, using an Echo 655 (Labcyte). The plate was centrifuged at 500 RPM for 1 min and then incubated at 37° C. under 5% CO2 for 24 h. After 24h, medium was removed, and cells were fixed by adding 40 μL of 4% paraformaldehyde solution to each well and incubated for 20 min at room temperature. The plate was then washed 4 times with 100 μL per well of wash buffer (PBS with 0.1% Tween-20) using a microplate washer. Next, 30 μL of ice-cold methanol was added to each well and the plate was incubated at −20° C. for 10 min. The plate was washed 4 times with 100 μL per well of wash buffer by a microplate washer, then 30 μL per well of blocking buffer (Intercept PBS blocking buffer (LI-COR 927-70001) with 0.05% Tween-20) was added and the plate was incubated at room temperature with shaking for 2h. Next, to each test well, 20 μL of primary antibody solution (p21 Waf1/CIP (12D1) RabbitmAb (Cell Signaling Technologies 2947) diluted 1:1000 and GAPDH (D4C6R) Mouse mAb (Cell Signaling Technologies 97166) diluted 1:2000 in blocking buffer) was added and the plate was placed at 4° C., overnight. The following day, the plate was washed 5 times with 100 μL per well of wash buffer using a microplate washer for 5 min. 20 μL per well of secondary antibody (IRDye 680CW Goat anti-Mouse IgG (H+L) (LI-COR 926-68070) diluted 1: 2000 in Blocking Buffer and IRDye 800CW Goat anti-Rabbit IgG (H+L) (LI-COR 926-32211) diluted 1: 2000 in Blocking Buffer) was then added and the plate was stored for 2h in the dark at room temperature with shaking. The plate was then washed 4 times with 100 μL per well of wash buffer again using a microplate washer. Finally, the p21 signal and the GAPDH signal were quantified using a LI-COR Odyssey CLx Imager machine reading at 800 nm and 700 nm, respectively. Each plate contained DMSO control (low control) and an internal reference WRN inhibitor (high control) respectively. For quantitation, the 800 nm/700 nm ratio was calculated for each well to give fold p21 induction and then percent activation for each compound well was calculated as follows (100×(ratio cpd well−ratio low control)/(ratio high control−ratio low control)). EC50 values for each compound were generated after non-linear regression curve fitting using commercially available software.

Row | Compound | IC50 [1] [nM] | EC50 ([2]; Homo sapiens, HCT-116, 24 h) [nM] | EC50 [2] [nM]
1 | CCc1c(N2CCN(C(=O)c3c(O)ccc4ncoc34)CC2)c(=O)n2nc(-c3ccnc(OC)c3)nc2n1CC(=O)NC12CC(C3CCC3)(C1)C2 [I-28, N-(3-cyclobutylbicyclo[1.1.1]pentan-1-yl)-2-(5-ethyl-6-(4-(6-hydroxybenzo[d]oxazole-7-carbonyl)piperazin-1-yl)-2-(2-methoxypyridin-4-yl)-7-oxo-[1,2,4]triazolo[1,5-a]pyrimidin-4(7H)-yl)acetamide] | ≤ 5 | ≤ 500 | –
2 | CCc1c(N2CCN(C(=O)c3c(OC)ncc(C4CCOC4)c3O)CC2)c(=O)c2nn(-c3ccnc(OC)c3)nc2n1CC(=O)NC12CC(C(C)C)(C1)C2 (single isomer, unassigned) [I-65] | 5 to 50 | – | ≤ 500
3 | CCc1c(N2CCN(C(=O)c3c(O)ccc4nc(C)oc34)CC2)c(=O)n2nc(-c3ccnc(OC)c3)nc2n1CC(=O)NC12CC(CC)(C1)C2 [I-215, 2-(5-ethyl-6-(4-(6-hydroxy-2-methylbenzo[d]oxazole-7-carbonyl)piperazin-1-yl)-2-(2-methoxypyridin-4-yl)-7-oxo-[1,2,4]triazolo[1,5-a]pyrimidin-4(7H)-yl)-N-(3-ethylbicyclo[1.1.1]pentan-1-yl)acetamide] | 5 to 50 | ≤ 500 | –
4 | CCc1c(N2CCN(C(=O)c3c(O)ccc4ncoc34)CC2)c(=O)n2nc(-c3ccnc(OC)c3)nc2n1CC(=O)NC12CC(C(F)(F)C(F)F)(C1)C2 [I-41, 2-(5-ethyl-6-(4-(6-hydroxybenzo[d]oxazole-7-carbonyl)piperazin-1-yl)-2-(2-methoxypyridin-4-yl)-7-oxo-[1,2,4]triazolo[1,5-a]pyrimidin-4(7H)-yl)-N-(3-(1,1,2,2-tetrafluoroethyl)bicyclo[1.1.1]pentan-1-yl)acetamide] | 5 to 50 | ≤ 500 | –
5 | CCc1c(C2=CCN(C(=O)c3ncnc(C)c3O)CC2C)c(=O)c2nn(-c3ccnc(OC)c3)nc2n1CC(=O)NC12CC(C(C)C)(C1)C2 (single isomer, unassigned) [I-98] | 5 to 50 | – | 500 to 2000
6 | CCc1c(N2CCN(C(=O)c3c(OC)ncc(C4CC4)c3O)CC2)c(=O)c2nn(-c3ccnc(OC)c3)nc2n1CC(=O)NC12CC(C(C)C)(C1)C2 [I-83, 2-{6-[4-(5-cyclopropyl-4-hydroxy-2-methoxypyridine-3-carbonyl)piperazin-1-yl]-5-ethyl-2-(2-methoxypyridin-4-yl)-7-oxo-2H,4H,7H-[1,2,3]triazolo[4,5-b]pyridin-4-yl}-N-[3-(propan-2-yl)bicyclo[1.1.1]pentan-1-yl]acetamide] | – | ≤ 500 | –
7 | CCc1c(N2CCN(C(=O)c3c(OC)ncc(F)c3O)[C@H]3CC[C@@H]32)c(=O)c2nn(-c3ccnc(OC)c3)nc2n1CC(=O)NC12CC(C(C)C)(C1)C2 [I-166, 2-{5-ethyl-6-[(1S,6S)-5-(5-fluoro-4-hydroxy-2-methoxypyridine-3-carbonyl)-2,5-diazabicyclo[4.2.0]octan-2-yl]-2-(2-methoxypyridin-4-yl)-7-oxo-2H,4H,7H-[1,2,3]triazolo[4,5-b]pyridin-4-yl}-N-[3-(propan-2-yl)bicyclo[1.1.1]pentan-1-yl]acetamide] | ≤ 5 | – | –

Other lines, results leading:

Row | IC50 [1] [nM] | EC50 ([2]; Homo sapiens, HCT-116, 24 h) [nM] | EC50 [2] [nM] | Compound
8 | 100 to 500 | > 5000 | – | CCc1c(N2CCN(C(=O)c3c(O)ccc4ncoc34)CC2)c(=O)n2ncnc2n1CC(=O)NC12CC(C3CCC3)(C1)C2 [I-243, N-(3-cyclobutylbicyclo[1.1.1]pentan-1-yl)-2-(5-ethyl-6-(4-(6-hydroxybenzo[d]oxazole-7-carbonyl)piperazin-1-yl)-7-oxo-[1,2,4]triazolo[1,5-a]pyrimidin-4(7H)-yl)acetamide]
9 | 5 to 50 | > 5000 | – | CCc1c(N2CCN(C(=O)CC3CCCC(=O)N3)[C@H]3CC[C@@H]32)c(=O)c2nn(C3=CCOCC3)nc2n1CC(=O)NC12CC(C(C)C)(C1)C2 (stereo partly drawn) [I-235, 2-(2-(3,6-dihydro-2H-pyran-4-yl)-5-ethyl-7-oxo-6-((1S,6S)-5-(2-(6-oxopiperidin-2-yl)acetyl)-2,5-diazabicyclo[4.2.0]octan-2-yl)-2,7-dihydro-4H-[1,2,3]triazolo[4,5-b]pyridin-4-yl)-N-(3-isopropylbicyclo[1.1.1]pentan-1-yl)acetamide]
10 | 5 to 50 | 2000 to 5000 | – | CCc1c(N2CCN(C(=O)c3cccc4ncoc34)CC2)c(=O)n2nc(-c3ccnc(OC)c3)nc2n1CC(=O)NC12CC(C(F)(F)F)(C1)C2 [I-231, 2-(6-(4-(benzo[d]oxazole-7-carbonyl)piperazin-1-yl)-5-ethyl-2-(2-methoxypyridin-4-yl)-7-oxo-[1,2,4]triazolo[1,5-a]pyrimidin-4(7H)-yl)-N-(3-(trifluoromethyl)bicyclo[1.1.1]pentan-1-yl)acetamide]
